Laboratory results as given in article PMC7835349 (Communications Biology, 2021).
Where “and” joins values, the source holds several entries; their conditions need not be identical. Equal values may be shown once.

Columns and labels:
RS4;11 xenograft = test: RS4;11 mouse xenograft efficacy (tumour volume); assay type: in vivo, C.B-17 SCID mouse; design: key to tumour volume, individual animals: tumour volume in mm³, length × width²/0.52
Experimental: Female C.B.−17 SCID mice were purchased from Charles River Laboratories. Mice were 5–8 weeks old at the time of tumour implantation. All xenograft studies were conducted at our Association for the Assessment and Accreditation of Laboratory Animal Care accredited facility in Waltham, MA in accordance with ethical regulations described in the guidelines established by the internal Institutional Animal Care and Use Committee. The dendrimer conjugates were formulated in citrate/phosphate buffer pH 5.0, diluted 1:10 with 5% glucose containing 1% w/v Kolliphor HS15, and AZD4320 was formulated in 30% HP-β-CD and dosed as a weekly intravenous (IV) administration at a volume of 5 ml/kg at the indicated doses. Five million RS4;11, five million SUDHL-4 or five million OCI-LY-10 cells were injected subcutaneously in the right flank of mice in a volume of 0.1 ml. Tumour volumes (measured by caliper), animal body weight, and tumor condition were recorded twice weekly for the duration of the study. The tumour volume was calculated (taking length to be the longest diameter across the tumour and width to be the corresponding perpendicular diameter) using the formula: length (mm) x width (mm)^2/0.52. For efficacy studies, mice were randomized based on tumour volumes using stratified sampling and enrolled into control and treatment groups. Tumour growth inhibition from the start of treatment was quantified by measuring the difference in tumour volume between control and treated groups. Survival analysis was evaluated using Mantel-Cox test. Tumours were also taken for bioanalysis.

cleaved caspase-3 (CC3) = test: Cleaved caspase-3 in RS4;11 tumours by MSD ELISA; assay type: in vivo, C.B-17 SCID mouse
Experimental: Tumours were excised, snap frozen in liquid nitrogen and stored at –80 °C. Tumours were homogenised in lysis buffer containing protease and phosphatase inhibitors, protein concentration determined by Pierce BCA Protein Assay Kit and diluted in lysis buffer to a protein concentration of 0.4 μg/μL. Cleaved caspase-3 (CC3) was measured using the mesoscale cleaved caspase-3 (Asp175) assay whole cell lysate kit according to manufacturer’s instructions. Induction of CC3 was expressed as fold change of treated tumours over vehicle control.

## AZD4320-MIDA-PEG2100 [AZD0466]
RS4;11 xenograft; Day 73, 20 mg/kg AZD4320, listed as SPL-8977, 20 mg/kg, in mm³ (unit assumed)
  tumour volume, individual animals: 574 and 450 and 240 and 837
RS4;11 xenograft; RS4;11
  AZD4320-equivalent dose of dendrimer conjugate needed to match efficacy of AZD4320: approximately twice the dose
RS4;11 xenograft; RS4;11, 20 mg/kg AZD4320 equivalent dose vs SPL-8932 20 mg/kg equivalent and AZD4320 10 mg/kg
  magnitude of in vivo efficacy: comparable to that of SPL-8932 and AZD4320
RS4;11 xenograft; RS4;11, AZD0466 10 mg/kg (3mg/kg AZD4320), day 41
  Tumour volume, Geo Mean: 492.913
RS4;11 xenograft; RS4;11, AZD0466 10 mg/kg (3mg/kg AZD4320), day 44
  Tumour volume, Geo Mean: 317.328
RS4;11 xenograft; RS4;11, AZD0466 10 mg/kg (3mg/kg AZD4320), day 48
  Tumour volume, Geo Mean: 5.078
RS4;11 xenograft; RS4;11, AZD0466 10 mg/kg (3mg/kg AZD4320), day 51
  Tumour volume, Geo Mean: 2.414
RS4;11 xenograft; RS4;11, AZD0466 10 mg/kg (3mg/kg AZD4320), day 55
  Tumour volume, Geo Mean: 1
RS4;11 xenograft; RS4;11, AZD0466 10 mg/kg (3mg/kg AZD4320), day 58
  Tumour volume, Geo Mean: 49.5834
RS4;11 xenograft; RS4;11, AZD0466 10 mg/kg (3mg/kg AZD4320), day 63
  Tumour volume, Geo Mean: 177.592
RS4;11 xenograft; RS4;11, AZD0466 10 mg/kg (3mg/kg AZD4320), day 66
  Tumour volume, Geo Mean: 258.58
RS4;11 xenograft; RS4;11, AZD0466 10 mg/kg (3mg/kg AZD4320), day 70
  Tumour volume, Geo Mean: 353.377
RS4;11 xenograft; RS4;11, AZD0466 10 mg/kg (3mg/kg AZD4320), day 73
  Tumour volume, Geo Mean: 450.085
RS4;11 xenograft; RS4;11, AZD0466 10 mg/kg (3mg/kg AZD4320), day 77
  Tumour volume, Geo Mean: 770.449
RS4;11 xenograft; RS4;11, AZD0466 10 mg/kg (3mg/kg AZD4320), day 80
  Tumour volume, Geo Mean: 703.796
RS4;11 xenograft; RS4;11, AZD0466 10 mg/kg (3mg/kg AZD4320), day 83
  Tumour volume, Geo Mean: 919.497
RS4;11 xenograft; RS4;11, AZD0466 34 mg/kg (10mg/kg AZD4320), day 41
  Tumour volume, Geo Mean: 491.258
RS4;11 xenograft; RS4;11, AZD0466 34 mg/kg (10mg/kg AZD4320), day 44
  Tumour volume, Geo Mean: 242.554
RS4;11 xenograft; RS4;11, AZD0466 34 mg/kg (10mg/kg AZD4320), day 48
  Tumour volume, Geo Mean: 1.95
RS4;11 xenograft; RS4;11, AZD0466 34 mg/kg (10mg/kg AZD4320), day 51
  Tumour volume, Geo Mean: 1
RS4;11 xenograft; RS4;11, AZD0466 34 mg/kg (10mg/kg AZD4320), day 55
  Tumour volume, Geo Mean: 1
RS4;11 xenograft; RS4;11, AZD0466 34 mg/kg (10mg/kg AZD4320), day 58
  Tumour volume, Geo Mean: 1
RS4;11 xenograft; RS4;11, AZD0466 34 mg/kg (10mg/kg AZD4320), day 63
  Tumour volume, Geo Mean: 24.9155
RS4;11 xenograft; RS4;11, AZD0466 34 mg/kg (10mg/kg AZD4320), day 66
  Tumour volume, Geo Mean: 88.4785
RS4;11 xenograft; RS4;11, AZD0466 34 mg/kg (10mg/kg AZD4320), day 70
  Tumour volume, Geo Mean: 55.1235
RS4;11 xenograft; RS4;11, AZD0466 34 mg/kg (10mg/kg AZD4320), day 73
  Tumour volume, Geo Mean: 52.3606
RS4;11 xenograft; RS4;11, AZD0466 34 mg/kg (10mg/kg AZD4320), day 77
  Tumour volume, Geo Mean: 71.4432
RS4;11 xenograft; RS4;11, AZD0466 34 mg/kg (10mg/kg AZD4320), day 80
  Tumour volume, Geo Mean: 194.327
RS4;11 xenograft; RS4;11, AZD0466 34 mg/kg (10mg/kg AZD4320), day 83
  Tumour volume, Geo Mean: 206.49
RS4;11 xenograft; RS4;11, AZD0466 103 mg/kg (30mg/kg AZD4320), day 41
  Tumour volume, Geo Mean: 495.68
RS4;11 xenograft; RS4;11, AZD0466 103 mg/kg (30mg/kg AZD4320), day 44
  Tumour volume, Geo Mean: 271.066
RS4;11 xenograft; RS4;11, AZD0466 103 mg/kg (30mg/kg AZD4320), day 48
  Tumour volume, Geo Mean: 1.967
RS4;11 xenograft; RS4;11, AZD0466 103 mg/kg (30mg/kg AZD4320), day 51
  Tumour volume, Geo Mean: 1
RS4;11 xenograft; RS4;11, AZD0466 103 mg/kg (30mg/kg AZD4320), day 55
  Tumour volume, Geo Mean: 1
RS4;11 xenograft; RS4;11, AZD0466 103 mg/kg (30mg/kg AZD4320), day 58
  Tumour volume, Geo Mean: 1
RS4;11 xenograft; RS4;11, AZD0466 103 mg/kg (30mg/kg AZD4320), day 63
  Tumour volume, Geo Mean: 5.6048
RS4;11 xenograft; RS4;11, AZD0466 103 mg/kg (30mg/kg AZD4320), day 66
  Tumour volume, Geo Mean: 13.7221
RS4;11 xenograft; RS4;11, AZD0466 103 mg/kg (30mg/kg AZD4320), day 70
  Tumour volume, Geo Mean: 40.3244
RS4;11 xenograft; RS4;11, AZD0466 103 mg/kg (30mg/kg AZD4320), day 73
  Tumour volume, Geo Mean: 44.9682
RS4;11 xenograft; RS4;11, AZD0466 103 mg/kg (30mg/kg AZD4320), day 77
  Tumour volume, Geo Mean: 64.9706
RS4;11 xenograft; RS4;11, AZD0466 103 mg/kg (30mg/kg AZD4320), day 80
  Tumour volume, Geo Mean: 64.3873
RS4;11 xenograft; RS4;11, AZD0466 103 mg/kg (30mg/kg AZD4320), day 83
  Tumour volume, Geo Mean: 200.25
RS4;11 xenograft; RS4;11, highest dose (30 mg/kg AZD4320-equivalent)
  animals remaining tumour free for up to 6 weeks: 2/6
RS4;11 xenograft; RS4;11, weekly IV, 10 mg/kg and 30 mg/kg AZD4320-equivalent
  regression during treatment period: Complete tumour regression
RS4;11 xenograft; RS4;11, weekly IV, 3, 10 and 30 mg/kg AZD4320-equivalent dose, each dose group
  tumour regression: tumour regression in all 6 mice
Cleaved caspase-3 (CC3); RS4;11, single dose AZD0466 34 mg/kg (10mg/kg AZD4320), 3 hr
  CC3 PD fold over vehicle, individual tumours: 1.1 fold over vehicle (2×) and 0.9 fold over vehicle
Cleaved caspase-3 (CC3); RS4;11, single dose AZD0466 34 mg/kg (10mg/kg AZD4320), 8 hr
  CC3 PD fold over vehicle, individual tumours: 1.1 fold over vehicle and 1.5 fold over vehicle and 1 fold over vehicle
Cleaved caspase-3 (CC3); RS4;11, single dose AZD0466 34 mg/kg (10mg/kg AZD4320), 24 hr
  CC3 PD fold over vehicle, individual tumours: 12.2 fold over vehicle and 4.6 fold over vehicle and 5.3 fold over vehicle
Cleaved caspase-3 (CC3); RS4;11, single dose AZD0466 34 mg/kg (10mg/kg AZD4320), 48 hr
  CC3 PD fold over vehicle, individual tumours: 8.7 fold over vehicle and 9 fold over vehicle and 11 fold over vehicle
Cleaved caspase-3 (CC3); RS4;11, single dose AZD0466 34 mg/kg (10mg/kg AZD4320), 72 hr
  CC3 PD fold over vehicle, individual tumours: 1.8 fold over vehicle and 1.4 fold over vehicle and 2.1 fold over vehicle
Cleaved caspase-3 (CC3); RS4;11, single dose AZD0466 103 mg/kg (30mg/kg AZD4320), 3 hr
  CC3 PD fold over vehicle, individual tumours: 6.8855 fold over vehicle and 4.506 fold over vehicle and 6.287 fold over vehicle
Cleaved caspase-3 (CC3); RS4;11, single dose AZD0466 103 mg/kg (30mg/kg AZD4320), 8 hr
  CC3 PD fold over vehicle, individual tumours: 52.0454 fold over vehicle and 56.5349 fold over vehicle and 45.3617 fold over vehicle
Cleaved caspase-3 (CC3); RS4;11, single dose AZD0466 103 mg/kg (30mg/kg AZD4320), 24 hr
  CC3 PD fold over vehicle, individual tumours: 82.2669 fold over vehicle and 79.7603 fold over vehicle and 78.3412 fold over vehicle
Cleaved caspase-3 (CC3); RS4;11, single dose AZD0466 103 mg/kg (30mg/kg AZD4320), 48 hr
  CC3 PD fold over vehicle, individual tumours: 33.7478 fold over vehicle and 42.9825 fold over vehicle and 23.216 fold over vehicle
Cleaved caspase-3 (CC3); RS4;11, single dose AZD0466 103 mg/kg (30mg/kg AZD4320), 72 hr
  CC3 PD fold over vehicle, individual tumours: 7.7976 fold over vehicle and 4.512 fold over vehicle and 6.025 fold over vehicle
